In the supplement of paper PMC10307832:

How the values were obtained:
Experiment in all cases: relative viability (nuclei count vs DMSO), 5 days (fraction); higher = more cells survive
201T = tested on: 201T
Procedure, shortened: (§1)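 Values are medians from duplicate plates. Each reflects relative viability, defined as the nuclei count of treated wells over that of vehicle wells. Lung cancer cell lines in 1536-well plates were pin-tool dosed one day after seeding with one drug alone or with a fixed anchor-drug dose plus five library-drug doses (not always all listed) in √10 steps, then fixed, stained and imaged at 4× after 5 days.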

COR-L 105 = tested on: COR-L 105
Procedure, shortened: as §1

EKVX = tested on: EKVX
Procedure, shortened: as §1

H3255 = tested on: H3255
Procedure, shortened: as §1

HARA = tested on: HARA
Procedure, shortened: as §1

HCC-827 = tested on: HCC-827
Procedure, shortened: as §1

HOP-62 = tested on: HOP-62
Procedure, shortened: as §1

LCLC-103H = tested on: LCLC-103H
Procedure, shortened: as §1

LOU-NH91 = tested on: LOU-NH91
Procedure, shortened: as §1

NCI-H1975 = tested on: NCI-H1975
Procedure, shortened: as §1

NCI-H2126 = tested on: NCI-H2126
Procedure, shortened: as §1

NCI-H2228 = tested on: NCI-H2228
Procedure, shortened: as §1

NCI-H23 = tested on: NCI-H23
Procedure, shortened: as §1

NCI-H2405 = tested on: NCI-H2405
Procedure, shortened: as §1

NCI-H3122 = tested on: NCI-H3122
Procedure, shortened: as §1

NCI-H596 = tested on: NCI-H596
Procedure, shortened: as §1

NCI-H650 = tested on: NCI-H650
Procedure, shortened: as §1

NCI-H661 = tested on: NCI-H661
Procedure, shortened: as §1

NCI-H727 = tested on: NCI-H727
Procedure, shortened: as §1

PC-3 [JPC-3] = tested on: PC-3 [JPC-3]
Procedure, shortened: as §1

SK-LU-1 = tested on: SK-LU-1
Procedure, shortened: as §1

CN1CCN(CCOc2cc(OC3CCOCC3)c3c(Nc4c(Cl)ccc5c4OCO5)ncnc3c2)CC1 [Saracatinib] + C[C@]1(O)C[C@@H](c2nc(-c3ccc4ccc(-c5ccccc5)nc4c3)c3c(N)nccn32)C1 [Linsitinib] (partner 1 µM)
relative viability (201T; first compound 0.02 µM): 1.05 | relative viability (201T; first compound 0.2 µM): 0.927 | relative viability (201T; first compound 0.6325 µM): 0.91 | relative viability (201T; first compound 2 µM): 0.809 | relative viability (COR-L 105; first compound 0.02 µM): 0.872 | relative viability (COR-L 105; first compound 0.2 µM): 1.02 | relative viability (COR-L 105; first compound 0.6325 µM): 0.63 | relative viability (COR-L 105; first compound 2 µM): 0.58 | relative viability (EKVX; first compound 0.02 µM): 0.988 | relative viability (EKVX; first compound 0.2 µM): 0.861 | relative viability (EKVX; first compound 0.6325 µM): 0.866 | relative viability (EKVX; first compound 2 µM): 0.318 | relative viability (H3255; first compound 0.02 µM): 0.994 | relative viability (H3255; first compound 0.2 µM): 0.986 | relative viability (H3255; first compound 0.6325 µM): 0.647 | relative viability (H3255; first compound 2 µM): 0.233 | relative viability (HARA; first compound 0.02 µM): 0.917 | relative viability (HARA; first compound 0.6325 µM): 0.787 | relative viability (HARA; first compound 2 µM): 0.629 | relative viability (HCC-827; first compound 0.02 µM): 0.981 | relative viability (HCC-827; first compound 0.2 µM): 0.739 | relative viability (HCC-827; first compound 0.6325 µM): 0.338 | relative viability (HCC-827; first compound 2 µM): 0.158 | relative viability (HOP-62; first compound 0.02 µM): 1.02 | relative viability (HOP-62; first compound 0.2 µM): 0.731 | relative viability (HOP-62; first compound 0.6325 µM): 1.35 | relative viability (HOP-62; first compound 2 µM): 1.01 | relative viability (LCLC-103H; first compound 0.02 µM): 1.18 | relative viability (LCLC-103H; first compound 0.2 µM): 0.873 | relative viability (LCLC-103H; first compound 0.6325 µM): 1.04 | relative viability (LCLC-103H; first compound 2 µM): 1.04 | relative viability (LOU-NH91; first compound 0.02 µM): 0.901 | relative viability (LOU-NH91; first compound 0.2 µM): 0.603 | relative viability (LOU-NH91; first compound 0.6325 µM): 0.594 | relative viability (LOU-NH91; first compound 2 µM): 0.518 | relative viability (NCI-H1975; first compound 0.02 µM): 0.953 | relative viability (NCI-H1975; first compound 0.6325 µM): 0.95 | relative viability (NCI-H1975; first compound 2 µM): 0.478 | relative viability (NCI-H2126; first compound 0.02 µM): 0.74 | relative viability (NCI-H2126; first compound 0.2 µM): 0.649 | relative viability (NCI-H2126; first compound 0.6325 µM): 0.612 | relative viability (NCI-H2126; first compound 2 µM): 0.549 | relative viability (NCI-H2228; first compound 0.02 µM): 0.806 | relative viability (NCI-H2228; first compound 0.2 µM): 0.704 | relative viability (NCI-H2228; first compound 0.6325 µM): 0.574 | relative viability (NCI-H2228; first compound 2 µM): 0.392 | relative viability (NCI-H23; first compound 0.02 µM): 0.58 | relative viability (NCI-H23; first compound 0.6325 µM): 0.558 | relative viability (NCI-H23; first compound 2 µM): 0.466 | relative viability (NCI-H2405; first compound 0.02 µM): 0.87 | relative viability (NCI-H2405; first compound 0.2 µM): 0.829 | relative viability (NCI-H2405; first compound 0.6325 µM): 0.466 | relative viability (NCI-H2405; first compound 2 µM): 0.372 | relative viability (NCI-H3122; first compound 0.02 µM): 1.05 | relative viability (NCI-H3122; first compound 0.6325 µM): 0.842 | relative viability (NCI-H3122; first compound 2 µM): 0.767 | relative viability (NCI-H596; first compound 0.02 µM): 1.01 | relative viability (NCI-H596; first compound 0.2 µM): 0.85 | relative viability (NCI-H596; first compound 0.6325 µM): 0.877 | relative viability (NCI-H596; first compound 2 µM): 0.737 | relative viability (NCI-H650; first compound 0.02 µM): 0.94 | relative viability (NCI-H650; first compound 0.2 µM): 0.885 | relative viability (NCI-H650; first compound 0.6325 µM): 0.838 | relative viability (NCI-H650; first compound 2 µM): 0.98 | relative viability (NCI-H661; first compound 0.02 µM): 0.525 | relative viability (NCI-H661; first compound 0.2 µM): 0.598 | relative viability (NCI-H661; first compound 0.6325 µM): 0.571 | relative viability (NCI-H661; first compound 2 µM): 0.376 | relative viability (NCI-H727; first compound 0.02 µM): 0.284 | relative viability (NCI-H727; first compound 0.2 µM): 0.159 | relative viability (NCI-H727; first compound 0.6325 µM): 0.26 | relative viability (NCI-H727; first compound 2 µM): 0.176 | relative viability (PC-3 [JPC-3]; first compound 0.02 µM): 0.961 | relative viability (PC-3 [JPC-3]; first compound 0.2 µM): 0.891 | relative viability (PC-3 [JPC-3]; first compound 0.6325 µM): 0.875 | relative viability (PC-3 [JPC-3]; first compound 2 µM): 0.583 | relative viability (SK-LU-1; first compound 0.02 µM): 0.92 | relative viability (SK-LU-1; first compound 0.2 µM): 0.752 | relative viability (SK-LU-1; first compound 0.6325 µM): 0.639 | relative viability (SK-LU-1; first compound 2 µM): 0.374

CN1CCN(CCOc2cc(OC3CCOCC3)c3c(Nc4c(Cl)ccc5c4OCO5)ncnc3c2)CC1 [Saracatinib] + Cc1nc(NC(=O)N2CCC[C@H]2C(N)=O)sc1-c1ccnc(C(C)(C)C(F)(F)F)c1 [Alpelisib] (partner 2 µM)
relative viability (201T; first compound 0.02 µM): 1.09 | relative viability (201T; first compound 0.2 µM): 0.865 | relative viability (201T; first compound 0.6325 µM): 0.856 | relative viability (201T; first compound 2 µM): 0.772 | relative viability (COR-L 105; first compound 0.02 µM): 0.91 | relative viability (COR-L 105; first compound 0.2 µM): 0.96 | relative viability (COR-L 105; first compound 0.6325 µM): 0.7 | relative viability (COR-L 105; first compound 2 µM): 0.416 | relative viability (EKVX; first compound 0.02 µM): 0.897 | relative viability (EKVX; first compound 0.2 µM): 0.551 | relative viability (EKVX; first compound 0.6325 µM): 0.671 | relative viability (EKVX; first compound 2 µM): 0.325 | relative viability (H3255; first compound 0.02 µM): 0.624 | relative viability (H3255; first compound 0.2 µM): 0.556 | relative viability (H3255; first compound 0.6325 µM): 0.366 | relative viability (H3255; first compound 2 µM): 0.166 | relative viability (HARA; first compound 0.02 µM): 0.904 | relative viability (HARA; first compound 0.6325 µM): 0.707 | relative viability (HARA; first compound 2 µM): 0.513 | relative viability (HCC-827; first compound 0.02 µM): 0.922 | relative viability (HCC-827; first compound 0.2 µM): 0.524 | relative viability (HCC-827; first compound 0.6325 µM): 0.195 | relative viability (HCC-827; first compound 2 µM): 0.157 | relative viability (HOP-62; first compound 0.02 µM): 0.989 | relative viability (HOP-62; first compound 0.2 µM): 0.782 | relative viability (HOP-62; first compound 0.6325 µM): 0.801 | relative viability (HOP-62; first compound 2 µM): 0.749 | relative viability (LCLC-103H; first compound 0.02 µM): 0.972 | relative viability (LCLC-103H; first compound 0.2 µM): 0.831 | relative viability (LCLC-103H; first compound 0.6325 µM): 0.899 | relative viability (LCLC-103H; first compound 2 µM): 0.893 | relative viability (LOU-NH91; first compound 0.02 µM): 0.683 | relative viability (LOU-NH91; first compound 0.2 µM): 0.5 | relative viability (LOU-NH91; first compound 0.6325 µM): 0.554 | relative viability (LOU-NH91; first compound 2 µM): 0.449 | relative viability (NCI-H1975; first compound 0.02 µM): 0.671 | relative viability (NCI-H1975; first compound 0.6325 µM): 0.585 | relative viability (NCI-H1975; first compound 2 µM): 0.367 | relative viability (NCI-H2126; first compound 0.02 µM): 0.751 | relative viability (NCI-H2126; first compound 0.2 µM): 0.654 | relative viability (NCI-H2126; first compound 0.6325 µM): 0.749 | relative viability (NCI-H2126; first compound 2 µM): 0.622 | relative viability (NCI-H2228; first compound 0.02 µM): 0.734 | relative viability (NCI-H2228; first compound 0.2 µM): 0.562 | relative viability (NCI-H2228; first compound 0.6325 µM): 0.532 | relative viability (NCI-H2228; first compound 2 µM): 0.365 | relative viability (NCI-H23; first compound 0.02 µM): 0.616 | relative viability (NCI-H23; first compound 0.6325 µM): 0.752 | relative viability (NCI-H23; first compound 2 µM): 0.526 | relative viability (NCI-H2405; first compound 0.02 µM): 0.796 | relative viability (NCI-H2405; first compound 0.2 µM): 0.821 | relative viability (NCI-H2405; first compound 0.6325 µM): 0.413 | relative viability (NCI-H2405; first compound 2 µM): 0.284 | relative viability (NCI-H3122; first compound 0.02 µM): 0.822 | relative viability (NCI-H3122; first compound 0.6325 µM): 0.664 | relative viability (NCI-H3122; first compound 2 µM): 0.46 | relative viability (NCI-H596; first compound 0.02 µM): 0.459 | relative viability (NCI-H596; first compound 0.2 µM): 0.424 | relative viability (NCI-H596; first compound 0.6325 µM): 0.448 | relative viability (NCI-H596; first compound 2 µM): 0.403 | relative viability (NCI-H650; first compound 0.02 µM): 1.14 | relative viability (NCI-H650; first compound 0.2 µM): 0.814 | relative viability (NCI-H650; first compound 0.6325 µM): 1.21 | relative viability (NCI-H650; first compound 2 µM): 1.13 | relative viability (NCI-H661; first compound 0.02 µM): 0.838 | relative viability (NCI-H661; first compound 0.2 µM): 0.329 | relative viability (NCI-H661; first compound 0.6325 µM): 0.357 | relative viability (NCI-H661; first compound 2 µM): 0.377 | relative viability (NCI-H727; first compound 0.02 µM): 0.558 | relative viability (NCI-H727; first compound 0.2 µM): 0.461 | relative viability (NCI-H727; first compound 0.6325 µM): 0.334 | relative viability (NCI-H727; first compound 2 µM): 0.308 | relative viability (PC-3 [JPC-3]; first compound 0.02 µM): 0.998 | relative viability (PC-3 [JPC-3]; first compound 0.2 µM): 0.956 | relative viability (PC-3 [JPC-3]; first compound 0.6325 µM): 0.876 | relative viability (PC-3 [JPC-3]; first compound 2 µM): 0.53 | relative viability (SK-LU-1; first compound 0.02 µM): 0.634 | relative viability (SK-LU-1; first compound 0.2 µM): 0.673 | relative viability (SK-LU-1; first compound 0.6325 µM): 0.44 | relative viability (SK-LU-1; first compound 2 µM): 0.297
